Columns and labels:
[1] = system: colon cancer cell line HT-29; test: Sphere formation assay in HT-29; format: cell-based; conditions: HT-29, FIG. 5
Description: (§1) C-terminal Progranulin (progranulin) (Casio, peptide sequence: […], SEQ ID NO: 5) were reconstituted in sterile PBS upon delivery, aliquoted and stored at −20° C. Working stock concentrations were achieved by dilution in culture media. […] 5% CO2 and 21% O2 before performing the primary followed by secondary sphere formation assay.
(§2) The sphere formation assay was performed as described previously (Mammary Gland Biol Neoplasia, 2012, 17(2): 111-117). Briefly, single cell suspensions were obtained following treatment with respective sortilin inhibitors SI1, SI5, SI8, SI25, SI32, SI39, SI51 and SI62 of the invention and seeded in phenol red-free DMEM/F-12 (Gibco®, Life Technologies), supplemented with 1% B27 supplement (Fisher Scientific, Invitrogen), 1% P/S and 20 ng/ml EGF (BD Biosciences) onto non-adherent polyhema-coated plates. After cultivation for five days, single cell suspensions were obtained from the primary spheres and seeded again in phenol red-free DMEM/F-12 supplemented with 1% B27 supplement, 1% P/S and 20 ng/ml EGF onto non-adherent polyhema-coated plates for 5-7 days. Subsequently, spheres greater than 50 μm in diameter were counted manually in the microscope.

[2] = system: MDA-MB-231 breast cancer cell line; test: Secondary sphere formation assay in MDA-MB-231; format: cell-based; conditions: 48 hours; for progranulin induced secondary sphere formation: MDA-MB-231, in combination with 500 nM progranulin; for baseline sphere formation, compound used alone: MDA-MB-231, without progranulin
Description: as §1, §2

human sortilin (sSORT) = molecular target: T1, human sortilin (sSORT) (Homo sapiens, UniProt Q99523); test: Neurotensin competitive fluorescence polarization binding assay (FPA); conditions: mean IC50 values for sortilin inhibitors, IC50 (nM), 100 nM sSORT, 10 nM Neurotensin-Ahx-FITC, 1 h room temperature
T1 sequence (Q99523 78-756 limits assumed): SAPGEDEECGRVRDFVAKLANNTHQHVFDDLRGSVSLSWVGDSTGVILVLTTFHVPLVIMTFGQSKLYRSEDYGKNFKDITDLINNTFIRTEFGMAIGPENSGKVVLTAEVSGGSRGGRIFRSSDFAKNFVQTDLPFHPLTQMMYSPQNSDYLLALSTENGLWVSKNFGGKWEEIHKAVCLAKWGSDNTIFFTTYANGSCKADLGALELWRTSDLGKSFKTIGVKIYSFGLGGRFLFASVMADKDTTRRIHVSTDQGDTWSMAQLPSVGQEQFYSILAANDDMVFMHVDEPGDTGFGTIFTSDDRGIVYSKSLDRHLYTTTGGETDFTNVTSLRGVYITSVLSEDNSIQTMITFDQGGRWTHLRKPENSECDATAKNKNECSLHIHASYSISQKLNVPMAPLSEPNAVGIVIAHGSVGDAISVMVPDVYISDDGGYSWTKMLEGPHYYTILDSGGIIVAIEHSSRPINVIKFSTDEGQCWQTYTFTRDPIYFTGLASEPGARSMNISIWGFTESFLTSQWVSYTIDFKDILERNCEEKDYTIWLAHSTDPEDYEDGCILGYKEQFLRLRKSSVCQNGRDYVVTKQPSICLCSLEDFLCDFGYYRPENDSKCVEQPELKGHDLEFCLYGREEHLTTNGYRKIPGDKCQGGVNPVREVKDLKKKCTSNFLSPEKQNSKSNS
Description: Fresh 0.1% bovine serum albumin (BSA) was added to the assay buffer to obtain the final concentration: 50 mM HEPES, pH 7.4; 100 mM NaCl; 2.0 mM CaCl2; 0.1% BSA; 0.1% TWEEN® 20. The sortilin inhibitors of the invention and reference compounds (see Table 1) analyzed in the screen and neurotensin (used as an assay control) were serially diluted in ten different concentrations in assay buffer. In each well of a Nunc® MaxiSorp™ 384-well plate (Sigma Aldrich), 100 nM sSORT was mixed with pre-diluted sortilin inhibitors and 10 nM Neurotensin-Ahx-FITC in assay buffer adjusted to contain 1% DMSO in a final volume of 20 μl. The plate was then briefly centrifuged prior to 1 h incubation at room temperature in the dark.

MDA-MB-231 xenograft = MDA-MB-231 xenograft in vivo model, metastasis assessment; parameters: species or system NOD SCID gamma mice; conditions: compared to vehicle control; RC3 5-50 μg/day/mouse in drinking water for 21 days
Description: Luciferase tagged MDA-MB-231 cells were injected at a concentration of 0.2×10^6 cells subcutaneously into two sites of the flank of NOD SCID gamma mice (Taconic, Denmark). Cells were prepared in a 60% mixture of matrigel (growth factor reduced, BD Bioscience) and 40% complete media. The size of the tumors were determined by calliper measurement of the subcutaneous tumor mass two times per week and tumor volume was calculated according to the formula volume=(length×(width)^2/2). Assessments of metastasis were performed using the IVIS® whole body imager (PerkinElmer) based on luciferase expression from stably transfected cell lines.

[3] = system: melanoma cell line SK-MEL-30; test: Sphere formation assay in SK-MEL-30; format: cell-based; conditions: SK-MEL-30, FIG. 6
Description: as §1, §2

Compound | IC50 (human sortilin (sSORT)) [nM] | colon cancer cell sphere formation [1] | progranulin induced secondary sphere formation [2] | baseline sphere formation, compound used alone [2] | lung metastasis / metastasis formation (MDA-MB-231 xenograft) | melanoma cancer cell sphere formation [3]
CC(C)(C)/C=C/C(NC(=O)c1ccc(Oc2ccccc2)nc1)C(=O)O (racemic) [SI5, (E)-5,5-dimethyl-2-(6-phenoxynicotinoylamino)-3-hexenoic acid] | 17 | reduced | reduced sphere formation | reduced baseline sphere formation | reduced metastasis formation | 
Cc1nc(N(C)C)ncc1C(=O)NC(/C=C/C(C)(C)C)C(=O)O (racemic) [SI1, (E)-2-[2-(dimethylamino)-4-methyl-5-pyrimidinylcarbonylamino]-5,5-dimethyl-3-hexenoic acid] | 59 |  | reduced sphere formation | reduced baseline sphere formation |  | 
Cc1cccc(NC(=O)c2ccc(C(F)(F)F)cc2C(=O)O)n1 [RC3, 2-(N-6-Methyl-2-pyridylcarbamoyl)-5-(trifluoromethyl)benzoic acid, reference compound] |  |  | reduced sphere formation | increased sphere formation | induced lung metastasis | 
CC(C)(C)/C=C/C(NC(=O)c1ccc(OCc2ccccc2)nc1)C(=O)O (stereo not drawn) [SI39, (E)-2-[6-(benzyloxy)nicotinoylamino]-5,5-dimethyl-3-hexenoic acid] | 65 |  |  | reduced baseline sphere formation |  | 
CC(C)(C)/C=C/C(NC(=O)c1cc(Cl)c[nH]1)C(=O)O (stereo not drawn) [SI8, (E)-2-(4-chloro-2-pyrrolylcarbonylamino)-5,5-dimethyl-3-hexenoic acid] | 43 |  | reduced sphere formation | reduced baseline sphere formation |  | 

The remaining molecules from weak to strong by IC50 (human sortilin (sSORT)), led by results:

IC50 (human sortilin (sSORT)) [nM] | Compound | colon cancer cell sphere formation [1] | progranulin induced secondary sphere formation [2] | baseline sphere formation, compound used alone [2] | lung metastasis / metastasis formation (MDA-MB-231 xenograft) | melanoma cancer cell sphere formation [3]
80 | CC(C)(C)/C=C/C(NC(=O)c1ccc(-c2cccs2)cc1)C(=O)O (stereo not drawn) [SI51, (E)-5,5-dimethyl-2-[p-(2-thienyl)benzoylamino]-3-hexenoic acid] |  |  | reduced baseline sphere formation |  | 
61 | CC(C)(C)/C=C/C(NC(=O)c1cc(Cl)c(Cl)s1)C(=O)O (stereo not drawn) [SI62, (E)-2-(4,5-dichloro-2-thienylcarbonylamino)-5,5-dimethyl-3-hexenoic acid] |  |  | reduced baseline sphere formation |  | reduced
